Measurements published in patent publication US5705524A, “Thiepane compounds” (Gilead Sciences, Inc., priority 1995, dated 1998).
Like-named read-outs stand apart in the source and are kept apart here.

Assays:
[1] = biological target: T1, HIV protease (Human immunodeficiency virus type 1 group M subtype B, UniProt P04585); assay: biochemical
T1 construct: measurement of HIV-protease (HIV-PR) activity
Protocol: Compositions to be subjected to enzyme assay are lyophilited and diluted in DMSO to 100-1000 μM. Compositions having apparent IC50 <1 μm are diluted to 100 μM.
The assay is a fluorometric method for measurement of HIV-protease (HIV-PR) activity utilizing a synthetic peptide substrate for HIV-PR based on that described by Matayoshi, E. D.; Wang, G. T.; Krafft, G. A.; and Erickson, J. W.; Science, 1990, 247, 954-958; and Wang, G. T.; Huffker, J. A.; Matayoshi, E.; and Krafft, G. A.; Tetrahedron Lett., 1990, 165, 6493-6496.
1.0 mM ethylenediaminetetraacetic acid (EDTA)
1.0 mM dithiothreitol (DTT)
10% dimethyl sulfoxide (DMSO)
1 mg/mL bovine serum albumin (BSA) adjusted to pH 4.7
1. Prepare a solution of 2 μM HIV Protease Substrate 1 in the Assay Buffer.
2. Dispense the substrate solution into UV-pass fluorescence cuvettes (1 cm pathlength).
3. Set the excitation and emission monochromators of the spectrofluorimeter to 340 nm and 490 nm, respectively. To obtain the same kinetic constants as reported, cuvettes should be held at 37° C. throughout the assay.
4. Begin each assay by adding a small amount (<3% of the final volume) of HIV-PR-containing solution diluted tin the Assay Buffer.
5. Measure the initial rate of cleavage of fluorogenic substrate by monitoring the increase in fluorescence signal at 490 nm for 5-8 min at 37° C.
(§1) The apparent IC50 and IC50 values reported below in Table 25 were determined using the assays of Example 34 and 35, respectively. The values are indicated as follows: +=10-50 μM, ++2-10 μM, and +++<2 μM.

[2] = tested on: HIV IIIB; assay: XTT Cell Culture Assay, cells infected with HIV IIIB (Example 35); assay type: cell-based; details: read-out: Cell Culture IC50
Protocol: The method of Weislow, O. S.; Kiser, R.; Fine, D. L.; Bader, J.; Shoemaker, R. H.; and Boyd, M. R.; J. Nat. Cancer Institute, 1989, 81(8) 577-586 was applied with the following minor modifications: Infection of cells with HIV IIIB was performed without polybrene. Cells were distributed to Microtiter wells containing the compound of the invention 4 h after infection with HIV IIIB. 2×XTT was added at 5-6 days post infection. 20 μl 2% Triton X-100 was added 1 hour after XTT addition.
1. Add 4 ml of XTT (5 mg/ml) to 8 ml of Deficient RPMI medium (no phenol red, no serum). Mix briefly at 45° C. to dissolve XTT.
2. Add 800 μl of PMS (0.2 mg/ml) to XTT/RPMI mixture.
3. Remove 100 μl of cell free media from each well of a 96 well plate and replace with 100 μl of the XTT/PMS mixture.
4. Incubate at 37° C. for 1.5-2 h.
5. Read absorbance at 450 nm. Absorbance values are directly proportional to cell viability.
as §1

[3] = fluorogenic peptide substrate, 37° C., pH 4.7, read-out: Apparent Enzyme IC50
[4] = Human immunodeficiency virus 1, IIIB, HIV IIIB infected cells, XTT at 5-6 days post infection
[5] = HIV IIIB infected cells, XTT at 5-6 days post infection
[6] = Apparent Enzyme IC50, fluorogenic peptide substrate, 37° C., pH 4.7
[7] = Human immunodeficiency virus 1, IIIB

IC50 [1, 3] | IC50 [2, 4] | Compound | other results
< 2000 nM | 2000 to 10000 nM | CC1(C)O[C@@H]2[C@@H](O1)[C@@H](OCc1ccccn1)[C@@H](Cc1ccccc1)S(=O)(=O)[C@H](Cc1ccccc1)[C@@H]2OCc1ccccn1 [120/6] | 
< 2000 nM | 2000 to 10000 nM | CC1(C)O[C@@H]2[C@@H](O1)[C@@H](OCc1cccc[n+]1[O-])[C@@H](Cc1ccccc1)S(=O)(=O)[C@H](Cc1ccccc1)[C@@H]2OCc1ccccn1 [120/7] | 
< 2000 nM | < 2000 nM | O=S1(=O)[C@H](Cc2ccccc2)[C@H](OCc2cccnc2)[C@H](O)[C@@H](O)[C@@H](OCc2cccnc2)[C@H]1Cc1ccccc1 [120/15] | 
< 2000 nM | < 2000 nM | O=S1(=O)[C@H](Cc2ccccc2)[C@H](OCc2cccnc2)[C@H](O)[C@@H](O)[C@@H](OCc2ccc[n+]([O-])c2)[C@H]1Cc1ccccc1 [120/16] | 
< 2000 nM |  | O=S1(=O)[C@H](Cc2ccccc2)[C@H](OCc2ccncc2)[C@H](O)[C@@H](O)[C@@H](OCc2ccncc2)[C@H]1Cc1ccccc1 [120/19] | 
< 2000 nM | 10000 to 50000 nM | Cc1nc(CO[C@@H]2[C@H](O)[C@@H](O)[C@@H](OCc3csc(C)n3)[C@@H](Cc3ccccc3)S(=O)(=O)[C@@H]2Cc2ccccc2)cs1 [120/22] | 
 | < 2000 nM | O=S1(=O)[C@H](Cc2ccccc2)[C@H](OCc2cncs2)[C@H](O)[C@@H](O)[C@@H](OCc2cncs2)[C@H]1Cc1ccccc1 [120/25] | IC50 ([1]; read-out: Apparent Enzyme IC50): < 2000 nM
< 2000 nM |  | O=S1(=O)[C@H](Cc2ccccc2)[C@H](Oc2ccccn2)[C@H](O)[C@@H](O)[C@@H](Oc2ccccn2)[C@H]1Cc1ccccc1 [120/28] | 
< 2000 nM | < 2000 nM | Cc1cccc(CO[C@@H]2[C@H](O)[C@@H](O)[C@@H](OCc3cccc(C)c3)[C@@H](Cc3ccccc3)S(=O)(=O)[C@@H]2Cc2ccccc2)c1 [120/31] | 
< 2000 nM | < 2000 nM | COc1cccc(CO[C@@H]2[C@H](O)[C@@H](O)[C@@H](OCc3cccc(OC)c3)[C@@H](Cc3ccccc3)S(=O)(=O)[C@@H]2Cc2ccccc2)c1 [120/34] | 
< 2000 nM |  | O=S1(=O)[C@H](Cc2ccccc2)[C@H](OCc2cccc(Br)c2)[C@H](O)[C@@H](O)[C@@H](OCc2cccc(Br)c2)[C@H]1Cc1ccccc1 [120/37] | 
< 2000 nM |  | O=S1(=O)[C@H](Cc2ccccc2)[C@H](OCc2cccc(OCc3ccccc3)c2)[C@H](O)[C@@H](O)[C@@H](OCc2cccc(OCc3ccccc3)c2)[C@H]1Cc1ccccc1 [120/40] | 
< 2000 nM |  | O=S1(=O)[C@H](Cc2ccccc2)[C@H](OCc2cccc(O)c2)[C@H](O)[C@@H](O)[C@@H](OCc2cccc(O)c2)[C@H]1Cc1ccccc1 [120/41] | 
< 2000 nM | < 2000 nM | Nc1cccc(CO[C@@H]2[C@H](O)[C@@H](O)[C@@H](OCc3cccc(N)c3)[C@@H](Cc3ccccc3)S(=O)(=O)[C@@H]2Cc2ccccc2)c1 [120/46] | 

Continued, molecule first:

Compound | IC50 [1, 3] | IC50 [2, 4] | other results
O[C@@H]1[C@@H](O)[C@@H](OCc2ccccc2)CS[C@H](Cc2ccccc2)[C@@H]1OCc1ccccc1 [107/2] | 10000 to 50000 nM |  | 
[O-][S@+]1C[C@H](OCc2ccccc2)[C@H](O)[C@@H](O)[C@@H](OCc2ccccc2)[C@H]1Cc1ccccc1 [107/3] | 2000 to 10000 nM |  | 
[O-][S@@+]1C[C@H](OCc2ccccc2)[C@H](O)[C@@H](O)[C@@H](OCc2ccccc2)[C@H]1Cc1ccccc1 [107/4] | 2000 to 10000 nM | 10000 to 50000 nM | 
O=S1(=O)C[C@H](OCc2ccccc2)[C@H](O)[C@@H](O)[C@@H](OCc2ccccc2)[C@H]1Cc1ccccc1 [107/5] | < 2000 nM | 10000 to 50000 nM | 
N#Cc1ccccc1O[C@@H]1[C@H](O)[C@@H](O)[C@@H](Oc2ccccc2C#N)CS(=O)(=O)[C@@H]1Cc1ccccc1 [107/10] | 2000 to 10000 nM |  | 
N#Cc1ccc(O[C@@H]2[C@H](O)[C@@H](O)[C@@H](Oc3ccc(C#N)cc3)CS[C@@H]2Cc2ccccc2)cc1 [107/12] | 2000 to 10000 nM |  | 
N#Cc1ccc(O[C@@H]2[C@H](O)[C@@H](O)[C@@H](Oc3ccc(C#N)cc3)CS(=O)(=O)[C@@H]2Cc2ccccc2)cc1 [107/15] | 2000 to 10000 nM |  | 
[O-][S+]1[C@H](Cc2ccccc2)[C@H](OCc2ccccc2)[C@H](O)[C@@H](O)[C@@H](OCc2ccccc2)[C@H]1Cc1ccccc1 (stereo partly shown) [108/4] | < 2000 nM |  | IC50 [2, 5]: < 2000 nM
O=S1(=O)[C@H](Cc2ccccc2)[C@H](OCc2ccccc2)[C@H](O)[C@@H](O)[C@@H](OCc2ccccc2)[C@H]1Cc1ccccc1 [108/5] |  | < 2000 nM | 
[O-][S@@+]1[C@H](Cc2ccccc2)[C@H](OCc2ccccc2)[C@H](O)[C@@H](O)[C@@H](OCc2ccccc2)[C@@H]1Cc1ccccc1 [108/17] | 2000 to 10000 nM | 2000 to 10000 nM | 
O=S1(=O)[C@H](Cc2ccccc2)[C@H](OCc2ccccc2)[C@H](O)[C@@H](O)[C@@H](OCc2ccccc2)[C@@H]1Cc1ccccc1 [108/18] | < 2000 nM | 10000 to 50000 nM | 
O=S1(=O)[C@H](Cc2ccccc2)[C@H](OCc2ccccc2)[C@H](O)[C@@H](O)[C@H](OCc2ccccc2)[C@H]1Cc1ccccc1 [108/21] | < 2000 nM | < 2000 nM | 
O=S1(=O)[C@@H](Cc2ccccc2)[C@@H](OCc2ccccc2)[C@@H](O)[C@H](O)[C@H](OCc2ccccc2)[C@@H]1Cc1ccccc1 [108/27] | 10000 to 50000 nM | 10000 to 50000 nM | 
[O-][S+]1[C@H](Cc2ccccc2)[C@H](OCc2ccccc2)[C@H](O)[C@@H](O)[C@@H](OCc2ccccc2)[C@H]1Cc1ccccc1 (stereo partly shown) [120/3] | < 2000 nM |  | IC50 [2, 5]: 10000 to 50000 nM
O=[N+]([O-])c1cccc(CO[C@@H]2[C@H](O)[C@@H](O)[C@@H](OCc3cccc([N+](=O)[O-])c3)[C@@H](Cc3ccccc3)[S+]([O-])[C@@H]2Cc2ccccc2)c1 (stereo partly shown) [120/44] |  |  | IC50 [1, 6]: < 2000 nM; IC50 [2, 7]: < 2000 nM
O=[N+]([O-])c1cccc(CO[C@@H]2[C@H](O)[C@@H](O)[C@@H](OCc3cccc([N+](=O)[O-])c3)[C@@H](Cc3ccccc3)S(=O)(=O)[C@@H]2Cc2ccccc2)c1 [120/45] |  |  | IC50 [1, 6]: < 2000 nM; IC50 [2, 7]: < 2000 nM
